Publication PMC2651907, “ARC (NSC 188491) has identical activity to Sangivamycin (NSC 65346) including inhibition of both P-TEFb and PKC” (2009)

Target: T1, P-TEFb (cdk9/cyclin T1) (Homo sapiens, UniProt P50750)
T1 construct: recombinant P-TEFb (cdk9/cyclin T1); with cyclin T1
Experiment: […]-ATP kinase assay with PDKtide, recombinant P-TEFb
Assay type: biochemical

T1 sequence (P50750 whole entry): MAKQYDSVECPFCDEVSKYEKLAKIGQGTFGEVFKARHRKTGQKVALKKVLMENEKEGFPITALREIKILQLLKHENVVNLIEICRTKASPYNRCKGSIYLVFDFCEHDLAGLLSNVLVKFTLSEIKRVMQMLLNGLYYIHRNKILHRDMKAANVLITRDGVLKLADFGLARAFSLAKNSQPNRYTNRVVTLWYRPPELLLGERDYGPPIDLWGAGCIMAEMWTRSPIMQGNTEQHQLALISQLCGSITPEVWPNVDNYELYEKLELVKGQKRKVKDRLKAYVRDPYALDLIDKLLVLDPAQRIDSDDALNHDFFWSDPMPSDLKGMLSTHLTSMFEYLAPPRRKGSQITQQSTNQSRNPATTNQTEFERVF
T1 sequence (O60563 whole entry partner): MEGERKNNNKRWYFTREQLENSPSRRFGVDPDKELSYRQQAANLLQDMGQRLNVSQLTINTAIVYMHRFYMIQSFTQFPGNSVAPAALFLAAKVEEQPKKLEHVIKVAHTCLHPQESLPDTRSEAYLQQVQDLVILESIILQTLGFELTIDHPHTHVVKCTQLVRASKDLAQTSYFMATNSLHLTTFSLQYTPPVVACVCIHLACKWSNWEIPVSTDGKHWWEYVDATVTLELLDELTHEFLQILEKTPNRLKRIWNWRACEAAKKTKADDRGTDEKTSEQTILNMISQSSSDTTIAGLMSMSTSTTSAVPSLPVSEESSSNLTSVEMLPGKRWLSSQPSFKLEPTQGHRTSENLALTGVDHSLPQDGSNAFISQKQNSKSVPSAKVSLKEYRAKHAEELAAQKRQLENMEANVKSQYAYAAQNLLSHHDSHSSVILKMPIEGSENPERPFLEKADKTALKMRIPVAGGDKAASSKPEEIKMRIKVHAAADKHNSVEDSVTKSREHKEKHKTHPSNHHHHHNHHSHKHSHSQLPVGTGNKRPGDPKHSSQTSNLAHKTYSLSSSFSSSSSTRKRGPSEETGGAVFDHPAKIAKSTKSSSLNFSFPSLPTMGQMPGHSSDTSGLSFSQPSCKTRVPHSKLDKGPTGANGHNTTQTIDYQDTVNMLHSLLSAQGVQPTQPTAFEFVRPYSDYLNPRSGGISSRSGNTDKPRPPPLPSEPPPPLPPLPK

SMILES	32P-ATP kinase assay with PDKtide, recombinant P-TEFb
NNc1c(C(N)=O)c2c(N)ncnc2n1[C@@H]1O[C@H](CO)[C@@H](O)[C@H]1O [ARC, 4-amino-6-hydrazino-7-β-d-ribofuranosyl-7H-pyrrolo-(2,3-d)-pyrimidine-5-carboxamide]	ARC sangivamycin and toyocamycin prevent recombinant P-TEFb from phosphorylating substrate peptide (Fig. 4E)
NC(=O)c1cn([C@@H]2O[C@H](CO)[C@@H](O)[C@H]2O)c2ncnc(N)c12 [sangivamycin]	ARC sangivamycin and toyocamycin prevent recombinant P-TEFb from phosphorylating substrate peptide (Fig. 4E)
N#Cc1cn([C@@H]2O[C@H](CO)[C@@H](O)[C@H]2O)c2ncnc(N)c12 [toyocamycin]	ARC sangivamycin and toyocamycin prevent recombinant P-TEFb from phosphorylating substrate peptide (Fig. 4E)
